Results from the supplement of paper PMC10307832.

Legend:
Assay in all cases: relative viability (nuclei count vs DMSO), 5 days (fraction); higher = more cells survive
AZD1208 + Pictilisib = compound: N[C@@H]1CCCN(c2c(/C=C3\SC(=O)NC3=O)cccc2-c2ccccc2)C1 [AZD1208] + CS(=O)(=O)N1CCN(Cc2cc3nc(-c4cccc5[nH]ncc45)nc(N4CCOCC4)c3s2)CC1 [Pictilisib] (partner 1 µM)
In short: (§1)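 Each reported value is a median over duplicate plates. It expresses relative viability: treated-well nuclei count divided by vehicle-well nuclei count. Lung cancer cell lines in 1536-well plates were dosed by pin tool a day after seeding, alone with one drug or with a fixed anchor-drug dose plus five library-drug doses (not always all listed) in √10 steps, and nuclei were counted after 5 days.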

AZD1208 + Trametinib = compound: N[C@@H]1CCCN(c2c(/C=C3\SC(=O)NC3=O)cccc2-c2ccccc2)C1 [AZD1208] + CC(=O)Nc1cccc(-n2c(=O)n(C3CC3)c(=O)c3c(Nc4ccc(I)cc4F)n(C)c(=O)c(C)c32)c1 [Trametinib] (partner 0.02 µM)
In short: as §1

XMD14-99 + Palbociclib = compound: CN1CCN(CC1)C2=CC(=C(C=C2)NC3=NC(=C(S3)C(=O)C4=C(C=CC=C4Cl)Cl)N)OC [XMD14-99] + CC(=O)c1c(C)c2cnc(Nc3ccc(N4CCNCC4)cn3)nc2n(C2CCCC2)c1=O [Palbociclib] (partner 0.5 µM)
In short: as §1

AZD1208 + Palbociclib = compound: N[C@@H]1CCCN(c2c(/C=C3\SC(=O)NC3=O)cccc2-c2ccccc2)C1 [AZD1208] + CC(=O)c1c(C)c2cnc(Nc3ccc(N4CCNCC4)cn3)nc2n(C2CCCC2)c1=O [Palbociclib] (partner 0.5 µM)
In short: as §1

Row | Cell Line | relative viability (AZD1208 + Pictilisib; first compound 0.08 µM) | relative viability (AZD1208 + Pictilisib; first compound 0.253 µM) | relative viability (AZD1208 + Pictilisib; first compound 0.8 µM) | relative viability (AZD1208 + Pictilisib; first compound 2.53 µM) | relative viability (AZD1208 + Pictilisib; first compound 8 µM) | relative viability (AZD1208 + Trametinib; first compound 0.08 µM) | relative viability (AZD1208 + Trametinib; first compound 0.253 µM) | relative viability (AZD1208 + Trametinib; first compound 0.8 µM) | relative viability (AZD1208 + Trametinib; first compound 2.53 µM) | relative viability (AZD1208 + Trametinib; first compound 8 µM) | relative viability (XMD14-99 + Palbociclib; first compound 0.08 µM) | relative viability (XMD14-99 + Palbociclib; first compound 0.8 µM) | relative viability (XMD14-99 + Palbociclib; first compound 2.53 µM) | relative viability (XMD14-99 + Palbociclib; first compound 8 µM) | relative viability (AZD1208 + Palbociclib; first compound 0.08 µM) | relative viability (AZD1208 + Palbociclib; first compound 0.253 µM) | relative viability (AZD1208 + Palbociclib; first compound 0.8 µM) | relative viability (AZD1208 + Palbociclib; first compound 2.53 µM) | relative viability (AZD1208 + Palbociclib; first compound 8 µM)
1 | LOU-NH91 | 0.503 | 0.485 | 0.503 | 0.494 | 0.517 | 0.785 | 0.786 | 0.759 | 0.825 | 0.728 | 0.509 | 0.548 | 0.575 | 0.499 | 0.473 | 0.56 | 0.549 | 0.525 | 0.531
2 | LU99A | 0.304 | 0.294 | 0.289 | 0.35 | 0.236 | 0.574 | 0.575 | 0.515 | 0.508 | 0.446 | 0.382 | 0.415 | 0.396 | 0.328 | 0.379 | 0.414 | 0.398 | 0.339 | 0.319
3 | LXF-289 | 0.706 | 0.724 | 0.73 | 0.699 | 0.724 | 0.678 | 0.629 | 0.673 | 0.694 | 0.747 | 0.625 | 0.571 | 0.55 | 0.575 | 0.587 | 0.639 | 0.583 | 0.622 | 0.635
4 | NCI-H23 | 0.413 | 0.561 | 0.327 | 0.358 | 0.335 | 0.361 | 0.301 | 0.272 | 0.347 | 0.303 | 0.519 | 0.541 | 0.529 | 0.454 | 0.491 | 0.478 | 0.462 | 0.477 | 0.356
5 | NCI-H322M | 0.494 | 0.466 | 0.463 | 0.474 | 0.547 | 0.49 | 0.487 | – | 0.566 | 0.578 | 0.449 | 0.523 | 0.472 | 0.514 | 0.488 | 0.467 | – | 0.5 | 0.502
6 | NCI-H358 | 0.35 | 0.284 | 0.333 | 0.299 | 0.283 | 0.118 | 0.109 | 0.12 | 0.12 | 0.102 | 0.0998 | 0.147 | 0.132 | 0.124 | 0.14 | 0.149 | 0.109 | 0.14 | 0.14
7 | NCI-H441 | 0.343 | 0.427 | 0.34 | 0.314 | 0.305 | 0.515 | 0.547 | 0.327 | 0.405 | 0.446 | 0.223 | 0.19 | 0.225 | 0.22 | 0.192 | 0.196 | 0.204 | 0.178 | 0.23
8 | NCI-H460 | 0.341 | 0.322 | 0.289 | 0.308 | 0.37 | 0.137 | 0.189 | 0.138 | 0.109 | 0.124 | 0.156 | 0.21 | 0.164 | 0.12 | 0.195 | 0.19 | 0.223 | 0.15 | 0.159
9 | NCI-H520 | 0.238 | 0.278 | 0.201 | 0.185 | 0.184 | 0.633 | 0.678 | 0.279 | 0.55 | 0.502 | 0.174 | 0.186 | 0.239 | 0.222 | 0.188 | 0.195 | 0.146 | 0.205 | 0.186
10 | NCI-H647 | 0.463 | 0.371 | 0.37 | 0.339 | 0.364 | 0.383 | 0.503 | 0.567 | 0.471 | 0.358 | 0.408 | 0.459 | 0.505 | 0.364 | 0.322 | 0.486 | 0.324 | 0.397 | 0.304
11 | NCI-H650 | 0.83 | 0.783 | 0.793 | 0.589 | 0.589 | 0.852 | 0.904 | 1.1 | 0.93 | 0.743 | 0.341 | 0.337 | 0.34 | 0.38 | 0.309 | 0.287 | 0.314 | 0.29 | 0.289
12 | NCI-H661 | 0.417 | 0.391 | 0.34 | 0.342 | 0.355 | 0.549 | 0.565 | 0.544 | 0.543 | 0.514 | 0.406 | 0.452 | 0.386 | 0.358 | 0.418 | 0.394 | 0.428 | 0.414 | 0.4
13 | NCI-H727 | 0.355 | 0.297 | 0.262 | 0.264 | 0.355 | 0.413 | 0.325 | 0.352 | 0.395 | 0.39 | 0.691 | 0.652 | 0.609 | 0.544 | 0.597 | 0.628 | 0.64 | 0.614 | 0.56
14 | NCI-H838 | 0.374 | 0.427 | 0.343 | 0.378 | 0.366 | 0.482 | 0.629 | 0.448 | 0.476 | 0.457 | 0.221 | 0.217 | 0.226 | 0.213 | 0.21 | 0.231 | 0.209 | 0.187 | 0.201
15 | NCI-H1355 | 0.419 | 0.39 | 0.35 | 0.349 | 0.306 | 0.429 | 0.391 | 0.416 | 0.401 | 0.366 | 0.393 | 0.419 | 0.383 | 0.331 | 0.396 | 0.37 | 0.372 | 0.385 | 0.318
16 | NCI-H1395 | 0.694 | 0.618 | 0.553 | 0.554 | 0.644 | 1.03 | 1.08 | 0.932 | 1.01 | 0.878 | 0.58 | 0.678 | 0.688 | 0.602 | 0.598 | 0.653 | 0.572 | 0.62 | 0.521
17 | NCI-H1437 | 0.369 | 0.388 | 0.271 | 0.246 | 0.247 | 0.423 | 0.597 | 0.358 | 0.419 | 0.408 | 0.307 | 0.311 | 0.252 | 0.221 | 0.288 | 0.353 | 0.302 | 0.263 | 0.291
